The results in this text go back to patent US12421253B2 (Mirati Therapeutics, Inc., priority 2020, dated 2025).

In general, IC50 refers to the point on the concentration scale where inhibition reaches its midpoint. A lower IC50 goes with higher potency.

In one test the target is T1, KRas^WT (Homo sapiens, UniProt P01116).
T1 construct: […]; biotin (biotinylated); purchased Accelegan Inc
Description: KRas binding assay (TR-FRET displacement of Cy5 labelled tracer). On the technique in general: Time-resolved FRET reads energy transfer from a long-lived donor to a nearby acceptor.

For another test, the target named is KRas^G13D (Homo sapiens, UniProt P01116, G13D). Description: biochemical.
KRas^G13D, sequence (P01116 1-169 isoform P01116-2 G13D): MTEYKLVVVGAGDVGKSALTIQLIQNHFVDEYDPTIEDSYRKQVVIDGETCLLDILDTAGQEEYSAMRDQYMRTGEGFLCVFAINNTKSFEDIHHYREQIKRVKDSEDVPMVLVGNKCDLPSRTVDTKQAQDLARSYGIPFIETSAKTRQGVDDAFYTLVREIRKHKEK
A further test has as its target T2, KRas^G12A (Homo sapiens, UniProt P01116, G12A).
T2 construct: […]; biotin (biotinylated); purchased Accelegan Inc
The test is described as follows: KRas binding assay (TR-FRET displacement of Cy5 labelled tracer).

A further test concerns the target T3, KRas^G12V (Homo sapiens, UniProt P01116, G12V).
T3 construct: […]; biotin (biotinylated); purchased Accelegan Inc
The test is described as above.

In the next test the target is KRas^G12C (Homo sapiens, UniProt P01116, G12C). The test is described as follows: biochemical.
KRas^G12C, sequence (P01116 1-169 isoform P01116-2 G12C): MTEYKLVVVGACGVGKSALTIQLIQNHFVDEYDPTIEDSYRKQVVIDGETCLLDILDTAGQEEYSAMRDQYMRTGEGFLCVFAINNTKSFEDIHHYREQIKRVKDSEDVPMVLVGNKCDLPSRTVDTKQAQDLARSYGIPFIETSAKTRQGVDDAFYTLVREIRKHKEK
For the next test, the target named is T4, KRas^G12S (Homo sapiens, UniProt P01116, G12S).
T4 construct: […]; biotin (biotinylated); purchased Accelegan Inc
T4 sequence (P01116 1-169 isoform P01116-2 G12S): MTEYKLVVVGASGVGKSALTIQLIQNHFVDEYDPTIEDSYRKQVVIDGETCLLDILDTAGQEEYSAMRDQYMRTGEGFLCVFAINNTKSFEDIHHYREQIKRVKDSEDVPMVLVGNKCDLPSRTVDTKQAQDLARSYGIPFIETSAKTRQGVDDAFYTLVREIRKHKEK
The test is described as follows: KRas binding assay (TR-FRET displacement of Cy5 labelled tracer).

Another test concerns the target T5, KRas^G12D (Homo sapiens, UniProt P01116, G12D).
T5 construct: […]; biotin (biotinylated); purchased Accelegan Inc
Described as above.

The target in a further test is T6, KRas^G12R (Homo sapiens, UniProt P01116, G12R).
T6 construct: […]; biotin (biotinylated); purchased Accelegan Inc
T6 sequence (P01116 1-169 isoform P01116-2 G12R): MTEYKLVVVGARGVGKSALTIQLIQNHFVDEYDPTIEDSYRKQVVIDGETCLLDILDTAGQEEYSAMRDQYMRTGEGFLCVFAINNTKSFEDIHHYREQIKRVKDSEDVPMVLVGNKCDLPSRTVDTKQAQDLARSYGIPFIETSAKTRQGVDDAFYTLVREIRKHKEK
Described as above.

Another test concerns the target KRas^Q61H (Homo sapiens, UniProt P01116, Q61H). Description: biochemical.

T3 sequence (P01116 1-169 isoform P01116-2 G12V): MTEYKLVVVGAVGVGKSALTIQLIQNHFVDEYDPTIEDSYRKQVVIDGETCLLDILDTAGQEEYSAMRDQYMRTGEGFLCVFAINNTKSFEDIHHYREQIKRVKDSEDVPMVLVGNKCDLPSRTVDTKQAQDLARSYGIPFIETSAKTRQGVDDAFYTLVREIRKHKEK
T1 sequence (P01116 1-169 isoform P01116-2): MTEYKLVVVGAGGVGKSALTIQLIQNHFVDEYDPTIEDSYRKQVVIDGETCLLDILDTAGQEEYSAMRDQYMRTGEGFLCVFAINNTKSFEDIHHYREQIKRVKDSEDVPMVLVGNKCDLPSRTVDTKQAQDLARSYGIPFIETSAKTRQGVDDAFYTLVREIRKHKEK
KRas^Q61H, sequence (P01116 1-169 isoform P01116-2 Q61H): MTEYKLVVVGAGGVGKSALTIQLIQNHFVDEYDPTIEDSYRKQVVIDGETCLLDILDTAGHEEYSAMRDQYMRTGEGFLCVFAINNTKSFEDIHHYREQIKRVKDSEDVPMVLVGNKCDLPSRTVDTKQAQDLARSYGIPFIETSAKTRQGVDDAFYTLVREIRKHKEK
T2 sequence (P01116 1-169 isoform P01116-2 G12A): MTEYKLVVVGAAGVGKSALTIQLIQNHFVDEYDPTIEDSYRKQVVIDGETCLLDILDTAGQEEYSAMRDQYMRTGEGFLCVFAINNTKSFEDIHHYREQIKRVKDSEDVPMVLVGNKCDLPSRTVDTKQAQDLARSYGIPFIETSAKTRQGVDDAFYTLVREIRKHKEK
T5 sequence (P01116 1-169 isoform P01116-2 G12D): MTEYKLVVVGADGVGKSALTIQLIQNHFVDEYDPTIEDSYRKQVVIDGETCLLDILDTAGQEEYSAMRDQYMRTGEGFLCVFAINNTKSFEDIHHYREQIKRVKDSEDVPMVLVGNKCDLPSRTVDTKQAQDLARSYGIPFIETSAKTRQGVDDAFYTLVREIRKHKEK
Description for KRas^G12A: (§1) The ability of a compound to bind to KRas was measured using a TR-FRET displacement assay. […] After a 60-minute incubation at room temperature, the reaction was measured using a BMG LABTECH CLARIO star Plus via TR-FRET. […] The POC values were fit to a 4-parameter IC50 equation and the IC50 value reported.
Description for KRas^G12C: as §1
Description for KRas^G12D: as §1
Description for KRas^G12R: as §1
Description for KRas^G12S: as §1
Description for KRas^G12V: as §1
Description for KRas^G13D: as §1
Description for KRas^Q61H: as §1
Description for KRas^WT: as §1

For `CCc1cccc2cccc(N3CCc4c(nc(OCC56CCCN5CCC6)nc4N4CCCN(C(N)=O)CC4)C3)c12` [Example 95, 4-(7-(8-ethylnaphthalen-1-yl)-2-((tetrahydro-1H-pyrrolizin-7a(5H)-yl)methoxy)-5,6,7,8-tetrahydropyrido[3,4-d]pyrimidin-4-yl)-1,4-diazepane-1-carboxamide], the IC50 on KRas^WT came to 255 nM; against KRas^G13D, 254 nM; on KRas^G12A, 655 nM; at KRas^G12V, 990 nM; on KRas^G12C it was 656 nM; on KRas^G12S it was 953 nM. The values for the IC50 at KRas^G12D, at KRas^G12R and against KRas^Q61H were 4700 nM, 724 nM and 343 nM, respectively.

As for `CCc1cccc2cccc(N3CCc4c(nc(OCC56CCCN5CCC6)nc4N4C[C@@H](C)C[C@H](O)C4)C3)c12` [Example 97, (3S,5S)-1-(7-(8-ethylnaphthalen-1-yl)-2-((tetrahydro-1H-pyrrolizin-7a(5H)-yl)methoxy)-5,6,7,8-tetrahydropyrido[3,4-d]pyrimidin-4-yl)-5-methylpiperidin-3-ol], the 50% inhibitory concentration (IC50) worked out at 321 nM at KRas^WT; 336 nM at KRas^G13D; 484 nM on KRas^G12A; 567 nM on KRas^G12V; 558 nM at KRas^G12C; 520 nM at KRas^G12S. The half-inhibitory concentration (IC50) amounted to 1160 nM at KRas^G12D, 499 nM at KRas^G12R and 400 nM against KRas^Q61H.

Take `CCc1cccc2cccc(N3CCc4c(nc(OCC56CCCN5CCC6)nc4N(C)CC4(O)CC4)C3)c12` [Example 98, 1-(((7-(8-ethylnaphthalen-1-yl)-2-((tetrahydro-1H-pyrrolizin-7a(5H)-yl)methoxy)-5,6,7,8-tetrahydropyrido[3,4-d]pyrimidin-4-yl)(methyl)amino)methyl)cyclopropan-1-ol]: the IC50 came out at 444 nM on KRas^WT; 629 nM against KRas^G13D; 453 nM on KRas^G12A; 341 nM on KRas^G12V; 330 nM on KRas^G12C; 482 nM on KRas^G12S. Moreover, the IC50 at KRas^G12D worked out at 1070 nM; at KRas^G12R it was 514 nM; against KRas^Q61H, 537 nM.

On to `CCc1cccc2cccc(N3CCc4c(nc(OCC56CCCN5CCC6)nc4N4CCCC(c5ccno5)C4)C3)c12` (stereo not drawn) [Example 99, 5-(1-(7-(8-ethylnaphthalen-1-yl)-2-((tetrahydro-1H-pyrrolizin-7a(5H)-yl)methoxy)-5,6,7,8-tetrahydropyrido[3,4-d]pyrimidin-4-yl)piperidin-3-yl)isoxazole], for which the IC50 on KRas^WT was determined as 1240 nM; on KRas^G13D, 1560 nM; on KRas^G12A it was 1250 nM; on KRas^G12V, 958 nM; on KRas^G12C, 1000 nM; at KRas^G12S, 1250 nM. For the same compound, the figures for the IC50 at KRas^G12D, at KRas^G12R and on KRas^Q61H were 3010 nM, 338 nM and 1130 nM, respectively.

Regarding `CCc1cccc2cccc(N3CCc4c(nc(OCC56CCCN5CCC6)nc4N4CCCC(c5ccn(C)n5)C4)C3)c12` (stereo not drawn) [Example 100, 7-(8-ethylnaphthalen-1-yl)-4-(3-(1-methyl-1H-pyrazol-3-yl)piperidin-1-yl)-2-((tetrahydro-1H-pyrrolizin-7a(5H)-yl)methoxy)-5,6,7,8-tetrahydropyrido[3,4-d]pyrimidine], the IC50 on KRas^WT was 1140 nM; on KRas^G13D, 1370 nM; at KRas^G12A, 1010 nM; at KRas^G12V, 2030 nM; at KRas^G12C, 828 nM; on KRas^G12S it was 1430 nM. Besides, the IC50 on KRas^G12D came out at 4420 nM; on KRas^G12R, 339 nM; on KRas^Q61H, 1400 nM.

Take `CCc1cccc2cccc(N3CCc4c(nc(OCC56CCCN5CCC6)nc4N4CC(O)C(O)C(O)C4)C3)c12` (stereo not drawn) [Example 101, 1-(7-(8-ethylnaphthalen-1-yl)-2-((tetrahydro-1H-pyrrolizin-7a(5H)-yl)methoxy)-5,6,7,8-tetrahydropyrido[3,4-d]pyrimidin-4-yl)piperidine-3,4,5-triol]: the IC50 is 515 nM at KRas^WT; 673 nM against KRas^G13D; 487 nM at KRas^G12A; 546 nM at KRas^G12V; 355 nM at KRas^G12C; 383 nM on KRas^G12S. For the same compound, the IC50 on KRas^G12D is 1210 nM; on KRas^G12R it was 400 nM; on KRas^Q61H it was 740 nM.

For the compound `CCc1cccc2cccc(N3CCc4c(nc(OCC56CCCN5CCC6)nc4N4CCCN(C(=O)c5ccco5)CC4)C3)c12` [Example 102, (4-(7-(8-ethylnaphthalen-1-yl)-2-((tetrahydro-1H-pyrrolizin-7a(5H)-yl)methoxy)-5,6,7,8-tetrahydropyrido[3,4-d]pyrimidin-4-yl)-1,4-diazepan-1-yl)(furan-2-yl)methanone], the IC50 turned out to be 357 nM on KRas^WT; 363 nM against KRas^G13D; 805 nM on KRas^G12A; 6450 nM on KRas^G12V; 2990 nM at KRas^G12C; 3090 nM at KRas^G12S. Moreover, the IC50 is 15000 nM at KRas^G12D, 3080 nM at KRas^G12R and 424 nM against KRas^Q61H.

On to `CCc1cccc2cccc(N3CCc4c(nc(OCC56CCCN5CCC6)nc4N4CCOC(CC(N)=O)C4)C3)c12` (stereo not drawn) [Example 103, 2-(4-(7-(8-ethylnaphthalen-1-yl)-2-((tetrahydro-1H-pyrrolizin-7a(5H)-yl)methoxy)-5,6,7,8-tetrahydropyrido[3,4-d]pyrimidin-4-yl)morpholin-2-yl)acetamide], for which the IC50 was determined as 718 nM at KRas^WT; 691 nM against KRas^G13D; 785 nM at KRas^G12A; 1390 nM on KRas^G12V; 427 nM against KRas^G12C; 791 nM on KRas^G12S. Besides, the IC50 on KRas^G12D turned out to be 2580 nM; at KRas^G12R, 364 nM; against KRas^Q61H, 690 nM.

With `CCc1cccc2cccc(N3CCc4c(nc(OCC56CCCN5CCC6)nc4N4CCCC(c5nc(=O)[nH][nH]5)C4)C3)c12` (stereo not drawn) [Example 104, 5-(1-(7-(8-ethylnaphthalen-1-yl)-2-((tetrahydro-1H-pyrrolizin-7a(5H)-yl)methoxy)-5,6,7,8-tetrahydropyrido[3,4-d]pyrimidin-4-yl)piperidin-3-yl)-1,2-dihydro-3H-1,2,4-triazol-3-one], the IC50 at KRas^WT is 1590 nM; against KRas^G13D, 1800 nM; at KRas^G12A, 755 nM; on KRas^G12V, 852 nM; against KRas^G12C, 894 nM; on KRas^G12S it was 1120 nM. For the same compound, the IC50 on KRas^G12D turned out to be 4200 nM; at KRas^G12R, 365 nM; on KRas^Q61H, 1980 nM.

Regarding `CCc1cccc2cccc(N3CCc4c(nc(OCC56CCCN5CCC6)nc4N4CC(C)CC(C(N)=O)C4)C3)c12` (stereo not drawn) [Example 105, 1-(7-(8-ethylnaphthalen-1-yl)-2-((tetrahydro-1H-pyrrolizin-7a(5H)-yl)methoxy)-5,6,7,8-tetrahydropyrido[3,4-d]pyrimidin-4-yl)-5-methylpiperidine-3-carboxamide], the IC50 on KRas^WT turned out to be 469 nM; at KRas^G13D, 566 nM; on KRas^G12A, 382 nM; on KRas^G12V, 368 nM; on KRas^G12C it was 457 nM; at KRas^G12S, 385 nM. In addition, the IC50 at KRas^G12D worked out at 607 nM; at KRas^G12R, 461 nM; against KRas^Q61H, 600 nM.

Regarding `CCc1cccc2cccc(N3CCc4c(nc(OCC56CCCN5CCC6)nc4N4CCCC(c5nnc6n5CCC6)C4)C3)c12` (stereo not drawn) [Example 106, 4-(3-(6,7-dihydro-5H-pyrrolo[2,1-c][1,2,4]triazol-3-yl)piperidin-1-yl)-7-(8-ethylnaphthalen-1-yl)-2-((tetrahydro-1H-pyrrolizin-7a(5H)-yl)methoxy)-5,6,7,8-tetrahydropyrido[3,4-d]pyrimidine], the IC50 worked out at 1420 nM on KRas^WT; 1070 nM at KRas^G13D; 628 nM on KRas^G12A; 1300 nM on KRas^G12V; 369 nM on KRas^G12C; 752 nM at KRas^G12S. Besides, the IC50 at KRas^G12D was found to be 2230 nM; on KRas^G12R it was 1790 nM; at KRas^Q61H, 1460 nM.

For the compound `CCc1cccc2cccc(N3CCc4c(nc(OCC56CCCN5CCC6)nc4N4CCCC(CO)CC4)C3)c12` (stereo not drawn) [Example 107, (1-(7-(8-ethylnaphthalen-1-yl)-2-((tetrahydro-1H-pyrrolizin-7a(5H)-yl)methoxy)-5,6,7,8-tetrahydropyrido[3,4-d]pyrimidin-4-yl)azepan-4-yl)methanol], the IC50 at KRas^WT was 369 nM; at KRas^G13D it was 465 nM; on KRas^G12A it was 423 nM; on KRas^G12V, 406 nM; against KRas^G12C, 487 nM; on KRas^G12S, 535 nM. The IC50 at KRas^G12D is 1450 nM; at KRas^G12R it was 638 nM; at KRas^Q61H it was 528 nM.

For the compound `CCc1cccc2cccc(N3CCc4c(nc(OCC56CCCN5CCC6)nc4N4CCCC(c5n[nH]c(C6CC6)n5)C4)C3)c12` (stereo not drawn) [Example 108, 4-(3-(5-cyclopropyl-1H-1,2,4-triazol-3-yl)piperidin-1-yl)-7-(8-ethylnaphthalen-1-yl)-2-((tetrahydro-1H-pyrrolizin-7a(5H)-yl)methoxy)-5,6,7,8-tetrahydropyrido[3,4-d]pyrimidine], the IC50 at KRas^WT worked out at 1550 nM; against KRas^G13D, 1290 nM; on KRas^G12A it was 656 nM; at KRas^G12V, 948 nM; against KRas^G12C, 485 nM; on KRas^G12S, 975 nM. Also, the results for the IC50 at KRas^G12D, on KRas^G12R and against KRas^Q61H were 4090 nM, 381 nM and 1600 nM, respectively.
